The text below walks through data of patent US8895548B2, “Pharmaceutical composition for treating alzheimer's disease” (Shionogi & Co., Ltd., priority 2007, dated 2014).

Molecules are shown by their SMILES.

In general, melting point refers to the temperature, or range, at which the solid turns liquid.

In one series the test system is brain β amyloid 1-40. The experiment in a line: Lowering effect on brain β amyloid in rats. It counts as in vivo. To be noted: male Crg:SD rat, 10 mg/kg orally, brain isolated 3 hours after administration. The procedure:
(§1) A test compound was suspended in 0.5% methylcellulose, the final concentration was adjusted to 2 mg/mL, and this was orally administered to male Crg:SD rat (7 to 9 week old) at 10 mg/kg. In a vehicle control group, only 0.5% methylcellulose was administered, and an administration test was performed at 3 to 8 animals per group. A brain was isolated 3 hours after administration, a cerebral hemisphere was isolated, a weight thereof was measured, the hemisphere was rapidly frozen in liquid nitrogen, and stored at −80° C. until the day for extraction. The frozen cerebral hemisphere was transferred to a homogenizer manufactured by Teflon (registered trade mark) under ice cooling, a 5-fold volume of a weight of an extraction buffer (containing 1% CHAPS ({3-[(3-chloroamidopropyl)dimethylammonio]-1-propanesulfonate}), 20 mM Tris-HCl (pH 8.0), 150 mM NaCl, Complete (Roche) protease inhibitor) was added, up and down movement was repeated, and this was homogenized to solubilize for 2 minutes. The suspension was transferred to a centrifugation tube, allowed to stand on an ice for 3 hours or more and, thereafter centrifuged at 100,000×g and 4° C. for 20 minutes. After centrifugation, the supernatant was transferred to an ELISA plate (product No. 27730, Immuno-Biological Laboratories) for measuring 3 amyloid 1-40. ELISA measurement was performed according to the attached instruction. The lowering effect was calculated as a ratio compared to the brain b amyloid 1-40 level of vehicle control group.
`Cc1cnc(C(=O)Nc2ccc(F)c([C@]3(C)CCSC(N)=N3)c2)cn1` [Compound 622]: the “brain β amyloid 1-40, % of vehicle control group” value was 50.1 % of vehicle control group.

For the molecule `COc1cnc(C(=O)Nc2ccc(F)c([C@]3(C)CCSC(N)=N3)c2)cn1` [Compound 634], the “brain β amyloid 1-40, % of vehicle control group” value is 21.1 % of vehicle control group.

The same series, now with this note: po; male Crg:SD rat, 10 mg/kg orally, brain isolated 3 hours after administration, ELISA; read-out: reduction of brain β amyloid 1-40 compared to vehicle control group.
Consider `C[C@@]1(c2cccc(NC(=O)c3ncc(Cl)cc3Cl)c2)CCSC(N)=N1` [Compound 39], for which the inhibition in vivo at 10 mg/kg lay within 60 to 90%.

Regarding `COc1cnc(C(=O)Nc2cccc(C3(C)CCSC(N)=N3)c2)cn1` (centres unmarked) [Compound 243], the inhibition in vivo at 10 mg/kg fell in the range of 60 to 90%.

For `CC1(c2cccc(NC(=O)c3ncc(C(F)(F)F)cc3Cl)c2)CCSC(N)=N1` (centres unmarked) [Compound 482], the inhibition in vivo at 10 mg/kg was in the range of 60 to 90%.

For `C[C@@]1(c2cccc(NC(=O)c3cnc(O)cn3)c2)CCSC(N)=N1` [Compound 733], the inhibition in vivo at 10 mg/kg lay in the range of 60 to 90%.

Take `Cc1cc(C(=O)Nc2ccc(F)c(C3(C)CCSC(N)=N3)c2)c(C)o1` (centres unmarked) [Compound 1282]: the inhibition in vivo at 10 mg/kg lay within 60 to 90%.

In the case of `Cc1cnc(C(=O)Nc2ccc(F)c(C3(C)CCSC(N)=N3)c2)cn1` (centres unmarked) [Compound 359], the inhibition in vivo at 10 mg/kg is 60 to 90%.

In the case of `CC1(c2cccc(NC(=O)c3ccc(Cl)cn3)c2)CCSC(N)=N1` (centres unmarked) [Compound 793], the inhibition in vivo at 10 mg/kg lay in the range of 60 to 90%.

In the case of `CC1(c2cccc(NC(=O)c3ccc(F)cn3)c2)CCSC(N)=N1` (centres unmarked) [Compound 212], the inhibition in vivo at 10 mg/kg lay within 60 to 90%.

Turning to `CC1(c2cc(NC(=O)c3ncc(Cl)cn3)ccc2F)CCSC(N)=N1` (centres unmarked) [Compound 204], the inhibition in vivo at 10 mg/kg was in the range of 60 to 90%.

Another series has as its system brain β amyloid 1-40. The experiment in a line: Lowering effect on brain β amyloid in mice. It is filed as in vivo. As to conditions: sc; male Crlj:CD-1(ICR) mouse, 100 mg/kg subcutaneously, brain isolated 3 hours after administration, ELISA; read-out: reduction of brain β amyloid 1-40 compared to vehicle control group. How it is done:
as §1
A test compound was suspended in 0.5% methylcellulose, the final concentration was adjusted to 10 mg/mL, and this was subcutaneously administered to back of male Crlj:CD-1(ICR) mouse (7 to 8 week old) at 100 mg/kg. In a vehicle control group, only 0.5% methylcellulose was administered. A test was performed at 4 to 8 animals per group. A brain was isolated 3 hours after administration. The subsequent operations were the same as in the above test in rat.
For orientation: An ELISA detects its analyte on a solid surface through an enzyme-linked reagent.
Take `CC1(c2cccc(NC(=O)c3cnc(N=[N+]=N)cn3)c2)CCSC(N)=N1` (centres unmarked) [Compound 1266]: the inhibition in vivo at 100 mg/kg is 60 to 90%.

For the molecule `CC1(c2cc(Cl)cc(NC(=O)c3ccc(Cl)cn3)c2)CCSC(N)=N1` (centres unmarked) [Compound 739], the inhibition in vivo at 100 mg/kg lay in the range of 60 to 90%.

As for `CC1(c2cccc(C(=O)Nc3ccc(Cl)cn3)c2)CCSC(N)=N1` (centres unmarked) [Compound 220], the inhibition in vivo at 100 mg/kg fell in the range of 60 to 90%.

For the molecule `Cc1cnc(C(=O)Nc2cccc(C3(C)CCSC(N)=N3)c2)cn1` (centres unmarked) [Compound 309], the inhibition in vivo at 100 mg/kg fell in the range of 60 to 90%.

In the case of `CC1(c2cc(Br)cc(NC(=O)c3cc4ccccc4s3)c2)CCSC(N)=N1` (centres unmarked) [Compound 1014], the inhibition in vivo at 100 mg/kg lay within 60 to 90%.

In the case of `CC1(c2cc(NC(=O)c3ccc(Cl)cn3)cc(C(F)(F)F)c2)C=C(N)SCC1` (centres unmarked) [Compound 964], the inhibition in vivo at 100 mg/kg lay within 60 to 90%.

`CC1(c2cc(Br)cc(NC(=O)c3ccc(Cl)cn3)c2)CCSC(N)=N1` (centres unmarked) [Compound 165]: the inhibition in vivo at 100 mg/kg is 60 to 90%.

For `CC1(c2cccc(NC(=O)c3ncc(Br)cn3)c2)CCSC(N)=N1` (centres unmarked) [Compound 900], the inhibition in vivo at 100 mg/kg lay within 60 to 90%.

With `CC1(c2cc(Br)cc(NC(=O)c3ccc(Br)cc3)c2)CCSC(N)=N1` (centres unmarked) [Compound 1262], the inhibition in vivo at 100 mg/kg was 60 to 90%.

The same series, now with this note: sc; male Crlj:CD-1(ICR) mouse, 100 mg/kg subcutaneously, brain isolated 3 hours after administration; read-out: brain β amyloid 1-40, % of vehicle control group.
For the molecule `CC1(c2cc(NC(=O)c3ccc(F)cn3)ccc2F)CCSC(N)=N1` (centres unmarked) [Compound 605], the response vs control in vivo at 100 mg/kg is 36.5%.

For `CC1(c2cc(NC(=O)c3ccc(Cl)cn3)ccc2Cl)CCSC(N)=N1` (centres unmarked) [Compound 1199], the response vs control in vivo at 100 mg/kg is 14.1%.

As to `CC1(c2cc(NC(=O)c3ccc(C(F)(F)F)cn3)ccc2F)CCSC(N)=N1` (centres unmarked) [Compound 396], the response vs control in vivo at 100 mg/kg is 38.4%.

In the case of `CC1(c2cccc(NC(=O)c3ccc(C(F)(F)F)cn3)c2)CCSC(N)=N1` (centres unmarked) [Compound 1244], the response vs control in vivo at 100 mg/kg is 50.1%.

In the case of `CC1(c2cccc(NC(=O)c3ncc(Cl)cc3Cl)c2)CCSC(N)=N1` (centres unmarked) [Compound 127], the response vs control in vivo at 100 mg/kg is 25.2%.

Take `CC1(c2cc(NC(=O)c3ccc(Cl)cn3)ccc2F)CCSC(N)=N1` (centres unmarked) [Compound 1043]: the response vs control in vivo at 100 mg/kg worked out at 15%.

Test system in a further series: not given
Test: not given
Details: not given
`C[C@]1(c2ccccc2)C[C@H](c2ccccc2)SC(N)=N1` (racemic) [Compound 835] came in with a melting point of 139 to 140 °C.

In turn, `C[C@]1(c2ccccc2)C[C@@H](c2ccccc2)SC(N)=N1.Cl` displayed a melting point of 161 to 165 °C.

Take `COc1ccc([C@]2(C)N=C(N)SC[C@H]2C)cc1` [Compound 8]: the melting point fell in the range of 214 to 217 °C.

With `CC1(C2=CC=C(F)CC2)CCCSC(N)=N1.Cl` (centres unmarked), the melting point was 219 to 222 °C.

`Cc1ccc(OC2=CCC(C3(C)CCSC(N)=N3)C=C2)cc1` (centres unmarked) [Compound 1067] registered a melting point of 162 to 165 °C.

`CC1(c2cccc(CO)c2)CCSC(N)=N1` (centres unmarked) [Compound 501] yielded a melting point of 155 to 158 °C.

In turn, `CC1(c2ccc(F)c(C(=O)NC3=CC(Cl)CC=N3)c2)CCSC(N)=N1` (centres unmarked) [Compound 1068] returned a melting point of 132 to 134 °C.

As to `CC1(C2=CC=CCC2)CCCSC(N)=N1.Cl` (centres unmarked), the melting point lay within 223 to 225 °C.

Take `COc1ccc([C@@]2(C)C[C@H](C)SC(N)=N2)cc1` [Compound 86]: the melting point was in the range of 141 to 142 °C.

In turn, `CC1(c2cc(NC(=O)c3ccc(Cl)cn3)cc(C(F)(F)F)c2)C=C(N)SCC1` (centres unmarked) [Compound 964] gave a melting point of 185 to 187 °C.

For the molecule `CCS/C(N)=N\C(C)C1C=C(NC(=O)c2cnc3ccccc3n2)C=CC1` (centres unmarked) [Compound 1115], the melting point fell in the range of 167 to 170 °C.

Consider `C[C@@]1(c2cc(NC(=O)c3n[nH]c4ccccc34)ccc2F)CCSC(N)=N1` [Compound 241], for which the melting point fell in the range of 187 to 190 °C.

In turn, `CC1(C2C=C(/C=N/OCc3cccnc3)C=CC2)CCSC(N)=N1` (centres unmarked) [Compound 584] showed a melting point of 152 to 153 °C.

In turn, `C[C@@]1(C2C=C(NC(=O)c3ncc(Cl)cc3N)C=CC2)CCSC(N)=N1` (some centres unmarked) [Compound 743] yielded a melting point of 148 to 150 °C.

The molecule `CC1(c2cccc(NC(=O)c3ncc(Cl)cn3)c2)CCSC(N)=N1` (centres unmarked) [Compound 515] gave a melting point of 204 to 208 °C.

Molecule `COC(=O)c1cc(C(=O)Nc2cccc(C3(C)CCSC(N)=N3)c2)nn1C` (centres unmarked) [Compound 687] displayed a melting point of 164 to 187 °C.

`CC1(c2ccc(F)c(N3N=C4c5cc(Cl)ccc5NCC4C3=O)c2)CCSC(N)=N1` (centres unmarked) [Compound 1166]: the melting point lay in the range of 290 to 295 °C.

Take `CC1(c2ccc(OC3C=CC=CC3)cc2)CCSC(N)=N1` (centres unmarked) [Compound 1055]: the melting point fell in the range of 169 to 170 °C.

The molecule `CC1(c2ccccc2)CCN=C(N)S1.Cl` (centres unmarked) [Compound 783] displayed a melting point of 205 to 206 °C.

`CC1(c2cccc(NC(=O)C3CN=CC=N3)c2)CCSC(N)=N1` (centres unmarked) [Compound 164] gave a melting point of 91 to 96 °C.

A further series deals with brain β amyloid 1-40. The experiment in a line: Lowering effect on brain β amyloid in mice. It counts as in vivo. To be noted: sc; male Crlj:CD-1(ICR) mouse, 3 hours after 30 mg/kg of subcutaneous administration; read-out: brain β amyloid 1-40, % of vehicle control group.
On to `CC1(c2cccc(NC(=O)c3ccc(C#N)cn3)c2)CCSC(N)=N1` (centres unmarked) [Compound 651], for which the response vs control in vivo at 30 mg/kg was found to be 52.3%.
